Experiments:
[1] = tested on: NMIBC; assay: Overall tumor response in patients with NMIBC (clinical and molecular end points); assay type: in vivo, human
Source text: Selecting relevant treatment end points is especially challenging for conditions where cure is elusive. New molecular tools may offer increased resolution of the disease response, to complement clinical observation and understand the potential of new drug candidates. This study used a combination of clinical and molecular tools to define the tumor response to alpha1-oleate in patients with NMIBC. In addition to the evaluation of the change in tumor size, the tumor response was defined by the shedding of tumor cells and fragments into the urine, by the uptake of alpha1-oleate by the tumor and by evidence of tumor cell specific apoptosis. Gene expression analysis of tumor RNA further identified interesting differences between the groups defined as CR, PR and NR by visual inspection.
After diagnosis and informed consent, the subjects received intra-vesical instillations of either alpha1-oleate or placebo on six occasions during one month preceding a scheduled transurethral resection (TURB). A safety follow-up was performed 52 days after the first instillation.

[2] = tested on: bladder tumor cells; assay: Cell shedding into urine after intravesical instillation; assay type: in vivo, human
Description: Intravesical alpha1-oleate instillations triggered a rapid tumor response, which was quantified by comparing the pre-instillation sample in each patient to the first urine sample obtained post instillation (≤2 hours).
To quantify the shedding of cells and cell clusters into the urine, samples were obtained from each patient prior to and after each instillation of alpha1-oleate or placebo (Visit 1-Visit 6). Cell shedding was quantified by counting the total number of epithelial cells in a unit of uncentrifuged urine under light microscopy, using a hemocytometer chamber. Changes in cell shedding were quantified at each visit, by comparing cell numbers in samples obtained before and after each instillation. The cell clusters were scored based on the examination of these samples by an experienced pathologist on a range of 0-2 where 0=no clusters and 2=the highest number of clusters.

[3] = tested on: adiponectin; assay: Adiponectin-ELISA of urine samples; assay type: in vivo, human; details: treated patients vs placebo, P<0.001
Description: To investigate levels of adiponectin protein in the urine samples of patients, an Adiponectin-ELISA test (Proteintech) was performed. The signal (absorbance) values were measured at 480 nm and interpolated to concentration (pg/mL) values using a linear regression statistical analysis. […] Graph showing urine adiponectin levels in both groups, with samples taken pre Visit 1, post Visit 1, Post Visit 3 and Post Visit 6. Line show change in median urine adiponectin levels (FIG. 4). There was statistically significant positive correlation between number of cells (shed) in urine samples and measure adiponectin levels (P=0,002), using linear regression (FIG. 4). Statistical analysis was done in GraphPad Prism.

[4] = tested on: shed bladder tumor cells; assay: DNA strand breaks by TUNEL staining of shed cells; assay type: in vivo, human; details: shed cells post-instillation vs pre-instillation, all treated patients
Description: Double strand DNA breaks were quantified by TUNEL staining, comparing shed cells post alpha1-oleate instillation, to the pre-instillation samples.
DNA fragmentation was detected using the terminal deoxynucleotidyl transferase dUTP nick end-labelling (TUNEL) assay (Click-iT TUNEL Alexa Fluor 488 imaging assay kit, ThermoFisher). Tissue sections were de-paraffinized with xylene followed by serial dehydration with ethanol (100, 95, 75 and 50%). Dehydrated sections were fixed (4% PFA, 15 min), permeabilized (DNase-free Protease K solution 20 μg/mL, 15 min) and incubated with TUNEL reaction mixture containing TdT for 60 min at 37° C. After the TUNEL reaction, sections were incubated with Click-iT reaction mixture (30 min, 37° C.). Sections were counterstained with DAPI (1 μg/mL, 5 minutes), mounted in Fluoromount aqueous mounting media, and analyzed by fluorescence microscopy (Zeiss). Fluorescence intensities were quantified by ImageJ and net mean fluorescence intensity calculated after subtraction of background fluorescence.

[5] = tested on: cancer related genes in bladder tumors; assay: Gene expression analysis (RNA sequencing) of tumors; assay type: in vivo, human
Source text: The tumor response was characterized in greater detail by sequencing of RNA extracted from tumor tissue obtained at TURB and from biopsies obtained from adjacent tissue with a healthy appearance.
Individual tumors in patients treated with alpha1-oleate were defined as complete responders (CR), if the tumor was removed, partial responders (PR) if the tumor size was reduced, stable disease if the tumor size was unchanged (SD) or as non-responders, if the tumor size increased (Cut off=25% change in tumor size) (FIG. 1a). The effects of alpha1-oleate on gene expression were further examined for individual patients and tumors, using […], and differences were detected relative to the clinical treatment response of each tumor. By Principal component analysis (PCA FIG. 1b) the majority of responding tumors formed a cluster with a similar overall gene expression profile.
RNA was extracted from tissues stabilized in RNAlater using the AllPrep DNA/RNA/miRNA Universal Kit. Disruption was in the TissueLyser system and CK28 Precellys tubes and by homogenization in the QIAshredder homogenizer. The quantity and quality of the RNA samples were evaluated using NanoDrop and Agilent 2100 Bioanalyzer. RNA samples were prepared by Illumina TruSeq Stranded mRNA Library Prep Kit (20020594), and libraries were multiplexed and sequenced using NextSeq 500/550 High Output Kits (v2.5 2×75 Cycles) with an average of 22 million reads per sample. Raw sequencing data was demultiplexed using bcl2fastq (version 2.18) and RSEM (1.3) was used for abundance estimation using the human genome release 37/Ensemble 75. Samples were thoroughly QCed and visualized using dimensionality reduction (i.e PCA), MA-plots as well as RNA-seq intrinsic biases (such as GC bias, transcriptome complexity and alignment quality). Differential expression analysis was performed using R (version 3.4) and the packages limma and DESeq2. Fold change were calculated by comparing tumors in the treated to the placebo group. Relative expression levels were analyzed and genes with an absolute fold change >2.0 and P<0.05 were considered as differentially expressed. Heat-maps were constructed using the Gitools 2.1.1 software. Differentially expressed genes were functionally characterized using the Ingenuity Pathway Analysis version 57662101 (IPA, Qiagen) software.
In a clinical study from an ongoing randomized, placebo-controlled phase II trial in patients with non-muscle invasive bladder cancer (NMIBC), treatment with the tumor-killing peptide-lipid complex Alpha1-Hamlet, by instillations to the patients' bladders, has shown promising therapeutic effects. Tumor tissue samples of patients (obtained post-treatment at visit number 6) were analyzed.

[6] = tested on: cancer related genes in bladder tumors; assay: as above; assay type: in vivo, human; details: log FC≤−0.10; individual tumors
[7] = tested on: non-muscle invasive bladder cancer tumors; assay: Tumor histopathology of biopsies; assay type: in vivo, human; details: treated tumors compared to the placebo group
Source text: The tumor response was further evaluated by histopathology. […] A complete response was confirmed by a lack of tumor tissue in the control biopsy or presence of minor residual tissue stroma without tumor cells. In the partial responders, fragmentation and cell shedding left few intact papilli and the tissue surface appeared denuded. In addition, tumor tissue surrounding the target lesion was affected in the responding patients, including satellite tumors, which had disappeared.
Tumor biopsies, collected at the time of surgery were evaluated by histopathology, using established parameters for scoring of Grade and Stage/Invasiveness. Tissue samples were analyzed by a designated study uro-pathologist. Both grading classifications (WHO 1973 and 2004/2016) were used. Biopsies from healthy tissue areas distant from the tumor were collected for comparison.

[8] = tested on: bladder cancer cells; details: local instillations; cited from earlier work
[9] = tested on: skin papillomas; details: topical application; cited from earlier work
[10] = tested on: tumor cells; details: cited from earlier work

For “alpha1-oleate: tumor-killing peptide-lipid complex of the synthetic alpha1 peptide (aa 1-39 of human alpha-lactalbumin) and oleate”, the “responders by tumor cell shedding, apoptosis and inhibition of cancer related genes” value [1] was “all patients in this study were definable as responders”, the “cell numbers in urine post instillation” value ([2]; at each visit compared to each pre-instillation sample) was “highly significant increase” and the cell shedding ([2]; first urine sample post instillation (≤2 hours)) was “detected in all patients”. For the same molecule, the urine adiponectin levels [3] was “significantly higher”, the “TUNEL staining (double strand DNA breaks)” value [4] was “marked increase” and the “ADIPOQ gene expression FC” value ([5]; 8.5 mM treated patients compared to placebo treated patients, tumor tissue post-treatment at visit 6) was −5353.7. For the same molecule, the “number of genes regulated (heat map analysis)” value ([5]; RNA from tumor tissue obtained at TURB) was “over 3500”, the “PRAME log FC” value ([5]; all treated tumors) was at most −10 and the “PTPRT log FC” value ([5]; all treated tumors) was at most −10. The EGR3 expression ([5]; in vivo) was “strongly downregulated”, the “bladder cancer related genes” value ([5]; in vivo) was “strongly inhibited” and the “tumor microenvironment pathway genes (VEGFD, TGFB2, TGFB3, FGF1, FGF5, FGF7, FGF10, IGF1)” value ([5]; in vivo) was “downregulated”. The “ADIPOQ dependent molecules downregulated” value ([5]; network analysis) was 66, the “ADIPOQ dependent molecules strongly regulated” value ([5]; network analysis) was 78 and the “ADIPOQ dependent molecules upregulated” value ([5]; network analysis) was 12. The “inhibited genes that were bladder cancer related” value ([5]; of the 297 inhibited genes) was 31/297, the “innate immune response genes” value ([5]; pathway analysis, cytokine storm signaling and G protein coupled receptor signaling) was “strongly down-regulated” and the “number of genes strongly down-regulated in all treated tumors” value [6] was 297. For the same molecule, the “tumor response by histopathology” value [7] was “Significant changes”.

B1: HAMLET: human alpha-lactalbumin made lethal to tumor cells; complex of partially unfolded α-lactalbumin and oleic acid (protein, UniProt P00709 20-142, looked up)
Alpha-lactalbumin: KQFTKCELSQLLKDIDGYGGIALPELICTMFHTSGYDTQAIVENNESTEYGLFQISNKLWCKSSQVPQSRNICDISCDKFLDDDITDDIMCAKKILDIKGIDYWLAHKALCTEKLEQWLCEKL
modifications: oleic acid complex
In the case of B1, the “effect on bladder cancer cells” value [8] is listed as “killed bladder cancer cells but not healthy cells in surrounding tissues”, the “effect on tumor size” value [8] is listed as “caused a reduction in tumor size” and the “effect on skin papillomas” value [9] is listed as “removed or reduced skin papillomas”. For the same molecule, the “tumoricidal activity in vitro” value [10] was “kills many types of tumor cells”.

B2: BAMLET: complex made by mixing bovine alpha-lactalbumin with oleic acid (protein, UniProt P00711 20-142, looked up)
Alpha-lactalbumin: EQLTKCEVFRELKDLKGYGGVSLPEWVCTTFHTSGYDTQAIVQNNDSTEYGLFQINNKIWCKDDQNPHSSNICNISCDKFLDDDLTDDIMCVKKILDKVGINYWLAHKALCSEKLDQWLCEKL
modifications: oleic acid complex
For B2, the “effects on tumour cells compared with HAMLET” value ([10]; Rammer et al. (2010)) is listed as “qualitatively similar effects”.

— patent US20260242874A1, “METHOD OF PREDICTING RESPONSE TO TREATMENT” (LINNANE PHARMA AB, priority 2023, published 2026)
